Tests used:
thoracic aorta = test: vascular function: Ang I pre-constricted isolated thoracic aorta; conditions: isolated aorta of SD rat, Ang I 10^–2 μM
Protocol: Endothelium-dependent vasorelaxation using aorta was evaluated as previously described ([Liao et al., 2019]). Briefly, after euthanizing the SD rat with sodium pentobarbital (100 mg kg^−1, i.p.) administration in combination with isoflurane inhalation, thoracic aorta (diameter: 150–250 μm, length: 2 mm) was mounted on two tungsten wires and attached to a tension sensor system (ADInstruments). After balancing for 2 h in Krebs’ solution at 37°C, arteries were exposed to 10 µM of phenylephrine (PE, Sigma-Aldrich, St. Louis, MO, United States) twice, followed by a single dose of acetylcholine (Ach, 3 μm, Sigma-Aldrich, St. Louis, MO, United States) to evaluate the integrity of the vessel. Afterward, the vessel was pre-constricted to maximum using AngI (Sigma-Aldrich) at 10^–2 μM and then treated with a series concentration of BAC or A779 (Sigma-Aldrich) or captopril at 10^–6 to 10^–1 μM. Lastly, a cumulative concentration response curve to BAC with A779 (at 10^–2 μM) was performed to assess the endothelium-dependent vasorelaxation.

ACE2 = ACE2 expression in aorta of SHRs (Western blot, tissue immunofluorescence); format: in vivo, rat; conditions: oral 14 days
From the text: All three MDAs (BAC, BMC, and BHC) were purchased from Nature-Standard Co., Ltd. (Shanghai, China) and their purities were all over 98%. The anti-hypertensive effects of MDAs were studied in both acute and chronic experiments. The 16-week-old SHRs were used in animal experiments, and each group had six rats. In the acute experiment, drug administration was via i.v. injection. For i.v. injection, the animals were randomly assigned into four groups: vehicle (0.1% DMSO–0.9% salt solution, n = 6), low-dose group (0.6 mg kg^−1 body weight, n = 6), medium-dose group (2 mg kg^−1 body weight, n = 6), and high-dose group (6 mg kg^−1 body weight, n = 6). The drug was administered using a venous catheter. In chronic experiments, the animals were randomly assigned into five groups: vehicle (5% Tween 80–0.9% salt solution, n = 6), captopril group (5 mg kg^−1 body weight, n = 6), low-dose group (3 mg kg^−1 body weight, n = 6), medium-dose group (10 mg kg^−1 body weight, n = 6), and high-dose group (30 mg kg^−1 body weight, n = 6). Oral administration with drug or 5% Tween 80–0.9% salt solution was carried out once a day, and continued for 14 days. […] Blood pressure was recorded in real time. […]
(§1) The cell samples and tissue sample were collected and placed in ice rapidly. […] Protein concentration in cell lysates was measured using a Bio-Rad DC Protein Assay Kit […]. […]

p-eNOS^Ser1177 = test: p-eNOS Ser1177 in aorta of SHRs (Western blot); format: in vivo, rat; conditions: vessel of SHRs, oral 14 days
From the text: (§2) All three MDAs (BAC, BMC, and BHC) were purchased from Nature-Standard Co., Ltd. (Shanghai, China) and their purities were all over 98%. The anti-hypertensive effects of MDAs were studied in both acute and chronic experiments. The 16-week-old SHRs were used in animal experiments, and each group had six rats. In the acute experiment, drug administration was via i.v. injection. For i.v. injection, the animals were randomly assigned into four groups: vehicle (0.1% DMSO–0.9% salt solution, n = 6), low-dose group (0.6 mg kg^−1 body weight, n = 6), medium-dose group (2 mg kg^−1 body weight, n = 6), and high-dose group (6 mg kg^−1 body weight, n = 6). The drug was administered using a venous catheter. In chronic experiments, the animals were randomly assigned into five groups: vehicle (5% Tween 80–0.9% salt solution, n = 6), captopril group (5 mg kg^−1 body weight, n = 6), low-dose group (3 mg kg^−1 body weight, n = 6), medium-dose group (10 mg kg^−1 body weight, n = 6), and high-dose group (30 mg kg^−1 body weight, n = 6). Oral administration with drug or 5% Tween 80–0.9% salt solution was carried out once a day, and continued for 14 days. […] Blood pressure was recorded in real time.
as §1

COX-2 = COX-2 expression in aorta of SHRs (Western blot); format: in vivo, rat; conditions: oral 14 days
From the text: as §2, §1

With CCN1CC2(COC)C(O)CC(OC)C34C5CC6(O)C(OC)C(O)C(O)(C5C6OC(=O)c5ccccc5)C(C(OC)C23)C14 (centres unmarked) [BAC, Benzoylaconitine] the “Ang I-induced vascular constriction” value (thoracic aorta; 10^–6 to 10^–1 μM) was “attenuate”, the “attenuation of Ang I-induced vascular constriction in presence of Mas inhibitor A779” value (thoracic aorta; with A779) was “abolished” and the “ACE2 expression in the aorta” value (ACE2) was “no effect”. The “p-eNOS^Ser1177” value (p-eNOS^Ser1177) was “activated” and the “expression of COX-2” value (COX-2) was “downregulated”.

Reference: PMC8963105, “A Novel Modulator of the Renin–Angiotensin System, Benzoylaconitine, Attenuates Hypertension by Targeting ACE/ACE2 in Enhancing Vasodilation and Alleviating Vascular Inflammation” (Frontiers in Pharmacology, 2022)
